Source: patent US20250152584A1, “NLRP3 INFLAMMASOME INHIBITOR AND USES THEREOF” (TransThera Sciences (Nanjing), Inc., priority 2022, published 2025)

Columns and labels:
[1] = Pharmacokinetic study in SD male rats; assay type: in vivo; conditions: rat, plasma; for clearance: read-out: Cl—obs iv (clearance rate) (converted); for Vd: read-out: Vss iv (volume of distribution); for bioavailability: iv 1.0 mg/kg / po 5.0 mg/kg, read-out: F % (absolute bioavailability); for Tmax: median, read-out: Tmax po (peak time of plasma concentration); for Cmax: read-out: Cmax po (peak concentration)
Experimental: Experimental Example 3: Pharmacokinetic Study of Compounds in SD Male Rats
Compound 54, Compound 55, Compound 174, Compound 173, and Compound 264 were prepared into solutions with a mixed solvent formulated from 5% dimethyl sulfoxide, 20% (30% solutol) and 75% normal saline, respectively; the solution of each compound was administered to SD male rats by gavage at a dose of 5.0 mg/kg; and the time points for blood collection were: 15 min, 30 min, 1 h, 2 h, 4 h, 6 h, 8 h, 10 h and 24 h. The solution of the compound was administered to male SD rats by intravenous bolus at a dose of 1.0 mg/kg, and the time points for blood collection were as follows: 5 min, 15 min, 30 min, 1 h, 2 h, 4 h, 6 h, 8 h, 10 h, and 24 h.
On the day before administration, the jugular vein of each animal was cannulated; and after administration, about 300 μL of blood was collected through the jugular vein, and then placed in an anticoagulant tube containing EDTA-K2. Blood samples were centrifuged at 12,000 rpm for 10 min at 4° C. to obtain plasma samples, and plasma was prepared within 30 min after blood collection. The plasma was stored in a −80° C. freezer before testing.
• 1. The samples were taken from the −80° C. freezer, thawed naturally at room temperature, and then vortexed for 5 min. • 2. 30 μL of a plasma sample was precisely pipetted into a 1.5 mL centrifuge tube. • 3. 750 μL of an internal standard working solution (the acetonitrile solution of tolbutamide) at a concentration of […] was added and mixed well. • 4. After vortexing for 5 min, the mixture was centrifuged at 12,000 rpm for 5 min. • 5. 50 μL of the supernatant was accurately pipetted into a 96-well plate preloaded with water at 150 μL/well. • 6. Vortexing was performed for 5 min for sufficient mixing, and LC-MS/MS analysis was then conducted.
(§1) The results of the concentrations of the compounds under test were output using Analyst 1.6.3 of AB. Parameters such as mean, standard deviation, coefficient of variation was calculated by Microsoft Excel (parameters directly output by Analyst 1.6.3 needed no calculation), and PK parameters were calculated by WinNonlin Phenoix 8.2 software NCA (Tmax as the median).

[2] = Pharmacokinetic study in C57BL/6J mice; assay type: in vivo; conditions: mouse, plasma, C57BL/6J female mice; for Tmax: median, read-out: Tmax po (peak time of plasma concentration); for Cmax: read-out: Cmax po (peak concentration); for clearance: read-out: Cl—obs iv (clearance rate) (converted); for Vd: read-out: Vss iv (volume of distribution); for bioavailability: iv 5 mg/kg / po 10 mg/kg, read-out: F % (absolute bioavailability)
Experimental: Experimental Example 2: Pharmacokinetic Study of Compounds in C57BL/6J Mice
Compound 100, Compound 54, Compound 174, Compound 179, and Compound 253 were prepared into solutions with a mixed solvent formulated from 5% dimethyl sulfoxide, 20% (30% solutol) and 75% normal saline, respectively; the solution of each compound was administered to C57BL/6J female mice by gavage at a dose of 10 mg/kg; and the time points for blood collection were: 15 min, 30 min, 1 h, 2 h, 4 h, 6 h, 8 h and 24 h. The solution of the compound was administered to C57BL/6J female mice by intravenous bolus at a dose of 5 mg/kg, and the time points for blood collection were as follows: 5 min, 15 min, 30 min, 1 h, 2 h, 4 h, 6 h, 8 h, and 24 h.
Compound 1 was prepared into a solution with a mixed solvent formulated from 5% DME, 20% (30% solutol) and 75% normal saline; the solution of this compound was administered to C57BL/6J female mice by gavage at a dose of 10 mg/kg, and the time points for blood collection were: 15 min, 30 min, 1 h, 2 h, 4 h, 6 h, 8 h, and 24 h. The solution of the compound was administered to C57BL/6J female mice by intravenous bolus at a dose of 5 mg/kg, and the time points for blood collection were as follows: 5 min, 15 min, 30 min, 1 h, 2 h, 4 h, 6 h, 8 h, and 24 h.
Compound 195 was prepared into a solution with a mixed solvent formulated from 5% dimethyl sulfoxide, 20% PEG400 and 75% normal saline; the solution of this compound was administered to C57BL/6J female mice by gavage at a dose of 10 mg/kg; and the time points for blood collection were 15 min, 30 min, 1 h, 2 h, 4 h, 6 h, 8 h, and 24 b. The solution of the compound was administered to C57BL/6J female mice by intravenous bolus at a dose of 5 mg/kg, and the time points for blood collection were as follows: 5 min, 15 min, 30 min, 1 h, 2 b, 4 h, 6 h, 8 h, and 24 h.
Approximately 100 μL of blood was collected through the retroorbital venous plexus, and was then placed in an anticoagulant tube containing EDTA-K2. Blood samples were centrifuged at 12,000 rpm for 10 min at 4° C. to obtain plasma samples, and plasma was prepared within 30 min after blood collection. The plasma was stored in a −80° C. freezer before testing.
• 1. The samples were taken from the −80° C. freezer, thawed naturally at room temperature, and then vortexed for 5 min • 2. 10 μL of a plasma sample was precisely pipetted from different individuals into a 1.5 mL centrifuge tube. • 3. 300 μL of an internal standard working solution (the acetonitrile solution of tolbutamide) at a concentration of […] was added and mixed well. • 4. After vortexing for 5 min, the mixture was centrifuged at 12,000 rpm for 5 min. • 5. 50 μL of the supernatant was accurately pipetted into a 96-well plate preloaded with water at 150 μL/well. • 6. Vortexing was performed for 5 min for sufficient mixing, and LC-MS/MS analysis was then conducted.
as §1

[3] = intravenous bolus 1.0 mg/kg, read-out: AUClast iv (area under the drug-time curve for 0-24 h)
[4] = intravenous bolus 1.0 mg/kg, read-out: tz1/2 iv (terminal elimination half-life) (converted)
[5] = po, gavage 5.0 mg/kg, read-out: AUClast po (area under the drug-time curve for 0-24 h)
[6] = po, gavage 5.0 mg/kg, read-out: tz1/2 po (terminal elimination half-life) (converted)
[7] = po, gavage 10 mg/kg, read-out: AUClast po (area under the drug-time curve for 0-24 h)
[8] = po, gavage 10 mg/kg, read-out: tz1/2 po (terminal elimination half-life) (converted)
[9] = intravenous bolus 5 mg/kg, read-out: AUClast iv (area under the drug-time curve for 0-24 h)
[10] = intravenous bolus 5 mg/kg, read-out: tz1/2 iv (terminal elimination half-life) (converted)

| SMILES | AUC(0-t) [1, 3] | clearance ([1]; intravenous bolus 1.0 mg/kg) | Vd ([1]; intravenous bolus 1.0 mg/kg) | half-life [1, 4] | bioavailability [1] | Tmax ([1]; po, gavage 5.0 mg/kg) | AUC(0-t) [1, 5] | Cmax ([1]; po, gavage 5.0 mg/kg) | half-life [1, 6] | Tmax ([2]; po, gavage 10 mg/kg) | AUC(0-t) [2, 7] | Cmax ([2]; po, gavage 10 mg/kg) | half-life [2, 8] | AUC(0-t) [2, 9] | clearance ([2]; intravenous bolus 5 mg/kg) | Vd ([2]; intravenous bolus 5 mg/kg) | half-life [2, 10] | bioavailability [2] |
| --- | --- | --- | --- | --- | --- | --- | --- | --- | --- | --- | --- | --- | --- | --- | --- | --- | --- | --- |
| C#Cc1ccc(-c2nnc(N[C@H]3C[C@@](C)(O)C3)cc2C)c(O)c1 [Compound 55, 5-ethynyl-2-(6-(((cis)-3-hydroxyl-3-methylcyclobutyl)amino)-4-methylpyridazin-3-yl)phenol] | 5130 ng·h/mL | 3.17 mL/min/kg | 1.12 L/kg | 5.24 h | 163% | 2 h | 38500 ng·h/mL | 3050 ng/mL | 7.18 h | – | – | – | – | – | – | – | – | – |
| C#Cc1ccc(-c2nnc(N[C@@H]3CCCN(C)C3)c3c2CCCC3)c(O)c1 [Compound 1, (R)-5-ethynyl-2-(4-((1-methylpiperidin-3-yl)amino)-5,6,7,8-tetrahydrophthalazin-1-yl)phenol] | – | – | – | – | – | – | – | – | – | 0.25 h | 1890 ng·h/mL | 428 ng/mL | 3 h | 1820 ng·h/mL | 44 mL/min/kg | 5.22 L/kg | 3.85 h | 49.9% |
| C#Cc1ccc(-c2nnc(N[C@@H]3CCCN(CCO)C3)cc2C)c(O)c1 [Compound 253, (R)-5-ethynyl-2-(6-((1-(2-hydroxyethyl)piperidin-3-yl)amino)-4-methylpyridazin-3-yl)phenol] | – | – | – | – | – | – | – | – | – | 0.5 h | 6900 ng·h/mL | 2320 ng/mL | 3.49 h | 3200 ng·h/mL | 25.5 mL/min/kg | 2.76 L/kg | 1.5 h | 106% |
| C#Cc1ccc(-c2nnc(N[C@@H]3CCCN(C)C3)c3ccccc23)c(O)c1 [Compound 100, (R)-5-ethynyl-2-(4-((1-methylpiperidin-3-yl)amino)phthalazin-1-yl)phenol] | – | – | – | – | – | – | – | – | – | 2 h | 10100 ng·h/mL | 1530 ng/mL | 2.76 h | 6360 ng·h/mL | 13.1 mL/min/kg | 3.16 L/kg | 3.04 h | 79.4% |

Other lines, results leading:

| AUC(0-t) [1, 3] | clearance ([1]; intravenous bolus 1.0 mg/kg) | Vd ([1]; intravenous bolus 1.0 mg/kg) | half-life [1, 4] | bioavailability [1] | Tmax ([1]; po, gavage 5.0 mg/kg) | AUC(0-t) [1, 5] | Cmax ([1]; po, gavage 5.0 mg/kg) | half-life [1, 6] | Tmax ([2]; po, gavage 10 mg/kg) | AUC(0-t) [2, 7] | Cmax ([2]; po, gavage 10 mg/kg) | half-life [2, 8] | AUC(0-t) [2, 9] | clearance ([2]; intravenous bolus 5 mg/kg) | Vd ([2]; intravenous bolus 5 mg/kg) | half-life [2, 10] | bioavailability [2] | SMILES |
| --- | --- | --- | --- | --- | --- | --- | --- | --- | --- | --- | --- | --- | --- | --- | --- | --- | --- | --- |
| 1100 ng·h/mL | 14.3 mL/min/kg | 6.92 L/kg | 6.13 h | 85.6% | 4 h | 4690 ng·h/mL | 395 ng/mL | 5.72 h | – | – | – | – | – | – | – | – | – | C#Cc1ccc(-c2nnc(N[C@@H]3CCCN(C)C3)cc2C2CC2)c(O)c1 [Compound 173, (R)-2-(4-cyclopropyl-6-((1-methylpiperidin-3-yl)amino)pyridazin-3-yl)-5-ethynylphenol] |
| – | – | – | – | – | – | – | – | – | 0.5 h | 3860 ng·h/mL | 1120 ng/mL | 2.19 h | 2470 ng·h/mL | 32.8 mL/min/kg | 5.14 L/kg | 2.01 h | 79.2% | C#Cc1ccc(-c2nnc(N[C@@H]3CCCN(C)C3)nc2C2CC2)c(O)c1 [Compound 179, (R)-2-(5-cyclopropyl-3-((1-methylpiperidin-3-yl)amino)-1,2,4-triazin-6-yl)-5-ethynylphenol] |
| 811 ng·h/mL | 17.5 mL/min/kg | 12.5 L/kg | 8.89 h | 72.8% | 4 h | 3120 ng·h/mL | 230 ng/mL | 7.26 h | – | – | – | – | – | – | – | – | – | CC#Cc1ccc(-c2nnc(N[C@@H]3CCCN(C)C3)cc2C2CC2)c(O)c1 [Compound 264, (R)-2-(4-cyclopropyl-6-((1-methylpiperidin-3-yl)amino)pyridazin-3-yl)-5-(propyl-1-alkyn-1-yl)phenol] |
